Results from ChEMBL document CHEMBL4321825, “Discovery of a Series of 5-Azaquinazolines as Orally Efficacious IRAK4 Inhibitors Targeting MyD88L265P Mutant Diffuse Large B Cell Lymphoma” (J Med Chem, 2019).
pIC50: −log10 of the molar value. In brackets after ≈: the same amount, converted by molar mass. Activity calls are given as the source filed them. The calls are words filed in the database; no cut-off is given here.

Experiments:
[1] = Lipophilicity, logD of the compound at pH 7.4 by shake-flask assay; type: physicochemical; conditions: buffer
[2] = Intrinsic clearance in human hepatocytes assessed per million cells; type: ADME, cell-based, Hepatocyte; conditions: read-out: CLH
[3] = Intrinsic clearance in rat hepatocytes assessed per million cells; type: ADME, cell-based, Hepatocyte; conditions: read-out: CLH
[4] = Intrinsic permeability in human Caco2 cells; type: ADME, cell-based; conditions: Caco-2
[5] = Clearance in rat at 0.5 mg/kg, iv; type: ADME, organism-based; conditions: in vivo
[6] = Oral bioavailability in rat at 1 mg/kg; type: ADME, organism-based; conditions: in vivo
[7] = target: T1, Cyclin-dependent kinase 9 (Homo sapiens, UniProt P50750); assay: Inhibition of CDK9 (unknown origin) at 1 uM relative to control
T1 sequence (P50750 whole entry): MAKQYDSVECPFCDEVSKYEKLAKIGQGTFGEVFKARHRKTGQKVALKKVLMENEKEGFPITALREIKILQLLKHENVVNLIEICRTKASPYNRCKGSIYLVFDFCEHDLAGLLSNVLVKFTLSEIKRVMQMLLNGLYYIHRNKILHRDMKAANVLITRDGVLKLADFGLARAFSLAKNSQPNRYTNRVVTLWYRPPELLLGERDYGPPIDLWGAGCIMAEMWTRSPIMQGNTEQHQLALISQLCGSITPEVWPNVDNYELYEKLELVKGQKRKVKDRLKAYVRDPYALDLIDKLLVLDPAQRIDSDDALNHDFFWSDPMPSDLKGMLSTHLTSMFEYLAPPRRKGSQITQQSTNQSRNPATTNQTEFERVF

[8] = target: T2, Serine/threonine-protein kinase ULK2 (Homo sapiens) (UniProt Q8IYT8); assay: Inhibition of ULK2 (unknown origin) at 1 uM relative to control
T2 sequence (whole entry): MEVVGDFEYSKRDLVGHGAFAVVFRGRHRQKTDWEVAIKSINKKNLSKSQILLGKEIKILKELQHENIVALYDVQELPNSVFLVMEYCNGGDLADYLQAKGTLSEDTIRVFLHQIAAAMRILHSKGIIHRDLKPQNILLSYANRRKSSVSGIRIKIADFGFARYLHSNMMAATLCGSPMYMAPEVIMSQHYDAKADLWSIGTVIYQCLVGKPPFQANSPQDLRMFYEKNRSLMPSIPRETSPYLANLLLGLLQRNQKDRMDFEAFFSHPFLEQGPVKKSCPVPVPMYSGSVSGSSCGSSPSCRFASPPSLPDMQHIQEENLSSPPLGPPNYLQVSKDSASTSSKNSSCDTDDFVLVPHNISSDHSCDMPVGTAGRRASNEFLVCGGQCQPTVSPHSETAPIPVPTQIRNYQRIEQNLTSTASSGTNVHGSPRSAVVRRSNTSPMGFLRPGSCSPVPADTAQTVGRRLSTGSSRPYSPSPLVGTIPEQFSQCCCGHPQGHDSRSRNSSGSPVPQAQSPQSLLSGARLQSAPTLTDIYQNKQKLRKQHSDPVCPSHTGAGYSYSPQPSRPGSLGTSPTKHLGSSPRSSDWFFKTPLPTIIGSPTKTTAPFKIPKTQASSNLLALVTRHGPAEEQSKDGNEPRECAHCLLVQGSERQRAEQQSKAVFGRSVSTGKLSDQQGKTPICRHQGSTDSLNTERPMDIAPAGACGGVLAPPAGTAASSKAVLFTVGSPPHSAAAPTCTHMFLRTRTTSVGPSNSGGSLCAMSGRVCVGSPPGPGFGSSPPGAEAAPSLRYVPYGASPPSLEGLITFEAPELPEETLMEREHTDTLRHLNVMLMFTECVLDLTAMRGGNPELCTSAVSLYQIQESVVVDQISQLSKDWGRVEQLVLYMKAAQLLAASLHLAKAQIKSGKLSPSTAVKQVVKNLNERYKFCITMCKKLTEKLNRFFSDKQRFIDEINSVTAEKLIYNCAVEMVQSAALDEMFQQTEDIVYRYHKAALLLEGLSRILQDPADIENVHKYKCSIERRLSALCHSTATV

[9] = target: Casein kinase I isoform gamma-1 (Homo sapiens) (UniProt Q9HCP0); assay: Inhibition of CK1g1 (unknown origin) at 1 uM relative to control
Chain of Casein kinase I isoform gamma-1 (Homo sapiens) (Q9HCP0 whole entry, looked up, canonical isoform): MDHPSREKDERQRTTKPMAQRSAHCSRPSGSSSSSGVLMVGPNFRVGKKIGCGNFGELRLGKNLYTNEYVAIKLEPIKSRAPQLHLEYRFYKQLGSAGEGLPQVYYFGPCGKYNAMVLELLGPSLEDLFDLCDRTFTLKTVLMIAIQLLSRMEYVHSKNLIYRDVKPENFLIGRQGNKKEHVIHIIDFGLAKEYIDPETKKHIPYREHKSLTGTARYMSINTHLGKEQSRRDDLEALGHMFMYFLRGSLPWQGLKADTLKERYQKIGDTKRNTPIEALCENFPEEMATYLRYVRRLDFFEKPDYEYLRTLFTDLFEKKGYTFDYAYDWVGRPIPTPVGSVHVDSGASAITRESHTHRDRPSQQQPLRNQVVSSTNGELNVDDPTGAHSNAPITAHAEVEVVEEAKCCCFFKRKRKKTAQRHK

[10] = target: Mitogen-activated protein kinase kinase kinase 9 (Homo sapiens) (UniProt P80192); assay: Inhibition of MLK1 (unknown origin) at 1 uM relative to control
Chain of Mitogen-activated protein kinase kinase kinase 9 (Homo sapiens) (P80192 whole entry, looked up): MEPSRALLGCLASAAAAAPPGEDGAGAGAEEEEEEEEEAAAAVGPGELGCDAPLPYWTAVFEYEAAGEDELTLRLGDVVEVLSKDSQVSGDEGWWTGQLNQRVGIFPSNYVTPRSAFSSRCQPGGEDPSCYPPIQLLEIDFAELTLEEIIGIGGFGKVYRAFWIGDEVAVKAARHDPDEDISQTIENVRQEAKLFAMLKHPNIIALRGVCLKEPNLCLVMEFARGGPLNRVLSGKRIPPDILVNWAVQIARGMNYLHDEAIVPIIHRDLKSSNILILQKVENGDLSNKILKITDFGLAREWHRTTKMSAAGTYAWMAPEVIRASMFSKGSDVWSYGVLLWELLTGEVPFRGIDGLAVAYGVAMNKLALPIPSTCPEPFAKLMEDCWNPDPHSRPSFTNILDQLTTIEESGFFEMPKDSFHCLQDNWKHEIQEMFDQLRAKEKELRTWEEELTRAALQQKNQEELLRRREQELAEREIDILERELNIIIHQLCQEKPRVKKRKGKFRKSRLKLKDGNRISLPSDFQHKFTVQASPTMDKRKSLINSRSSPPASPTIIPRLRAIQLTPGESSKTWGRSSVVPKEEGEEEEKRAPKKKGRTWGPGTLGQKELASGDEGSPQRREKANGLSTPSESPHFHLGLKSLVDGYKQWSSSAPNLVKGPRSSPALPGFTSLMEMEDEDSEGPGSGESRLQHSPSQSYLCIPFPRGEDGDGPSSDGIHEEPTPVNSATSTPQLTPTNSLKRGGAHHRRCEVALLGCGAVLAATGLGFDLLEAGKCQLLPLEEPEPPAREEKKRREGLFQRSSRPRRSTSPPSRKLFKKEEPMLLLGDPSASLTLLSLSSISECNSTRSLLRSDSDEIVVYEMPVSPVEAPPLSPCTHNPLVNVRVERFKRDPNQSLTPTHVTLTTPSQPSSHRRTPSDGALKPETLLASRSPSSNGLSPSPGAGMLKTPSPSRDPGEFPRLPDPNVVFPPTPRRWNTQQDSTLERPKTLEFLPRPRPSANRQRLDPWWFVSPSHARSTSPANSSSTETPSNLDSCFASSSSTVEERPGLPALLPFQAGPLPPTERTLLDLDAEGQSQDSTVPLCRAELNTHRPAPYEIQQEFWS

[11] = target: Interleukin-1 receptor-associated kinase 1 (Homo sapiens, UniProt P51617); assay: Inhibition of IRAK1 (unknown origin)
Chain of Interleukin-1 receptor-associated kinase 1 (P51617 whole entry): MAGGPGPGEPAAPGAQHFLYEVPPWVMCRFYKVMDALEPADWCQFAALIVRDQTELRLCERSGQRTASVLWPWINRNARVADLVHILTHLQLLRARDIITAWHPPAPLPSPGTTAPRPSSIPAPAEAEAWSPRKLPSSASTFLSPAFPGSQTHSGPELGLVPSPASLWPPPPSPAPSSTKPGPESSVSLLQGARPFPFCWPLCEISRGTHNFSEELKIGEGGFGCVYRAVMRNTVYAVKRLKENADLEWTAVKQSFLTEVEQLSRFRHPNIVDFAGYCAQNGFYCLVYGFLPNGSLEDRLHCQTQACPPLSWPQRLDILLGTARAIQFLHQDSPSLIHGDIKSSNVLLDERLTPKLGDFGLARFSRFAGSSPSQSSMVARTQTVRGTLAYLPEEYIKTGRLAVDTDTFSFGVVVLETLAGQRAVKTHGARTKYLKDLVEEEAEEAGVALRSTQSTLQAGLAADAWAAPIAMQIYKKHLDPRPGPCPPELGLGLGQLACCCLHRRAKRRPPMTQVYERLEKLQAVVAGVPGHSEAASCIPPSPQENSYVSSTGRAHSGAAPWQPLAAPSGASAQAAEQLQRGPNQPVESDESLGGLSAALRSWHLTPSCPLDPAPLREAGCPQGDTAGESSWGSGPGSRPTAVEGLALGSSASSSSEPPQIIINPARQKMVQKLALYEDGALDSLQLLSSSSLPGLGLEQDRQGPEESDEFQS

[12] = target: Dual specificity protein kinase CLK1 (Homo sapiens, UniProt P49759); assay: Inhibition of human recombinant CLK1 expressed in Escherichia coli
Chain of Dual specificity protein kinase CLK1 (P49759 whole entry): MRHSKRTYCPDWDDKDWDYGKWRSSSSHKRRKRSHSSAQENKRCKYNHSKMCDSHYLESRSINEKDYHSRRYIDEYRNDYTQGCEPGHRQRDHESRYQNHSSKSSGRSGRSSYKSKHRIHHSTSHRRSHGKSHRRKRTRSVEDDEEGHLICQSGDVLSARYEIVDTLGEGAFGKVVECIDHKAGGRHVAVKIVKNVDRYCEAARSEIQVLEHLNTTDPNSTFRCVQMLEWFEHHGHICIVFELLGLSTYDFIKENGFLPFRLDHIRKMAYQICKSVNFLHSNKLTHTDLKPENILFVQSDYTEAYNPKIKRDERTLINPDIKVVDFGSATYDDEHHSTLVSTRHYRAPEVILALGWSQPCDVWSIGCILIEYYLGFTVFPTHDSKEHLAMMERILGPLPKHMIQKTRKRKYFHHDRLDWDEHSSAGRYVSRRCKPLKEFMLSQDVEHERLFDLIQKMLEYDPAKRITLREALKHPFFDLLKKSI

[13] = target: Dual specificity protein kinase CLK2 (Homo sapiens, UniProt P49760); assay: Inhibition of human recombinant CLK2 expressed in Baculovirus system
Chain of Dual specificity protein kinase CLK2 (P49760 whole entry): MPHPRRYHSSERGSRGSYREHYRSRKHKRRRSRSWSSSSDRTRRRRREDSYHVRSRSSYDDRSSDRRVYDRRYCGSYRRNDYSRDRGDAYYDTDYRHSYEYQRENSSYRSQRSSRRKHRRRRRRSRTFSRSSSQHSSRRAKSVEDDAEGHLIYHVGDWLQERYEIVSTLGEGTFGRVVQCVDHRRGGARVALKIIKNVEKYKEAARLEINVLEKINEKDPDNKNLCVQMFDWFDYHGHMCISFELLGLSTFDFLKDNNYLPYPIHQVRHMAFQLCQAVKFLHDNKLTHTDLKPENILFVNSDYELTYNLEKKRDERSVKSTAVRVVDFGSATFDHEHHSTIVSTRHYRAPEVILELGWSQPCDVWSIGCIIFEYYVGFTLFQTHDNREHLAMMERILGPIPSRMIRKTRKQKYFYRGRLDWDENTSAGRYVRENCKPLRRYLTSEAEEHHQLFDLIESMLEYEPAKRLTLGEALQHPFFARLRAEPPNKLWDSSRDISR

[14] = target: Dual specificity protein kinase CLK3 (Homo sapiens, UniProt P49761); assay: Inhibition of human recombinant CLK3 expressed in Baculovirus system
Chain of Dual specificity protein kinase CLK3 (P49761 whole entry): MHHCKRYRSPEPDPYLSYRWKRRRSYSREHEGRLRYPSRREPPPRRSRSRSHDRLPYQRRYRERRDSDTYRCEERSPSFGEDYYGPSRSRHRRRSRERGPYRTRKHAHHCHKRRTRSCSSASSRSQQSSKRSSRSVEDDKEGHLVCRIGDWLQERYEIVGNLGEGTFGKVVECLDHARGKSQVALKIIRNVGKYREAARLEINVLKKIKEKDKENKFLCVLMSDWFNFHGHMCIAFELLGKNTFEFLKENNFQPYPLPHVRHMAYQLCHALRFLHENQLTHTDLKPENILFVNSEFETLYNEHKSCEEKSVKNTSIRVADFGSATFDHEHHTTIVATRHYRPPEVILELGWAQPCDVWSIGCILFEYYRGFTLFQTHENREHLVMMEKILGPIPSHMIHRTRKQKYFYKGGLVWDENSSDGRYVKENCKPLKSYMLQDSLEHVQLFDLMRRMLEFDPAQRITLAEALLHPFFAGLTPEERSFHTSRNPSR

[15] = target: Dual specificity protein kinase CLK4 (Homo sapiens, UniProt Q9HAZ1); assay: Inhibition of human recombinant CLK4 expressed in Baculovirus system
Chain of Dual specificity protein kinase CLK4 (Q9HAZ1 whole entry): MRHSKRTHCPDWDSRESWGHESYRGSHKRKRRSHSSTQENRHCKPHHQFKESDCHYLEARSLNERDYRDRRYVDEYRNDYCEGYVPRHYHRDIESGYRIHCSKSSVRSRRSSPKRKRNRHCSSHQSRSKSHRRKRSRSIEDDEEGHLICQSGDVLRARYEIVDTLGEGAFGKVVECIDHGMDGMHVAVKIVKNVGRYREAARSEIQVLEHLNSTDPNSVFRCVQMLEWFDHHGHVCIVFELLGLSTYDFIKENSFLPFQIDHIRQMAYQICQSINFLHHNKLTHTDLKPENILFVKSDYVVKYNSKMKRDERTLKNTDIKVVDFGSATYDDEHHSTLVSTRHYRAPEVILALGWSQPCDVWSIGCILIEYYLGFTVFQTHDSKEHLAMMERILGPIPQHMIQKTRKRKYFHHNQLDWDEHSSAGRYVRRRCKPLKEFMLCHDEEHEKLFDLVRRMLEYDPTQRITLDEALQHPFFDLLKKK

[16] = target: Cyclin-dependent kinase 7 (Homo sapiens, UniProt P50613); assay: Inhibition of CDK7 (unknown origin)
Chain of Cyclin-dependent kinase 7 (P50613 whole entry): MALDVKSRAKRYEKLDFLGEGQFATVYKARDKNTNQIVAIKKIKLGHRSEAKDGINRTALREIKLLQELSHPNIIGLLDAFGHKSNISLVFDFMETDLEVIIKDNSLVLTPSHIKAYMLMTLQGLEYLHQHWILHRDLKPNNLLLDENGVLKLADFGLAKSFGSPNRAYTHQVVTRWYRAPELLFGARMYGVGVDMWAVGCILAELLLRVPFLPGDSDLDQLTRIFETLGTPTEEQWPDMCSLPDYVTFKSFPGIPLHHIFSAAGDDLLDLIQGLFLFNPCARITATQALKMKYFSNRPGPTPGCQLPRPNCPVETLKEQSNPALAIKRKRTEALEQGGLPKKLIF

CDK8/Cyclin C = CDK8/Cyclin C (Homo sapiens, UniProt P49336); assay: Inhibition of human recombinant CDK8/cyclinC expressed in Baculovirus system
[17] = target: T1, Cyclin-dependent kinase 9; assay: Inhibition of CDK9 (unknown origin)
[18] = Unbound fraction in rat plasma at 37 degC by equilibrium dialysis; type: ADME, cell-free
[19] = Unbound fraction in mouse plasma at 37 degC by equilibrium dialysis; type: ADME, cell-free
[20] = Unbound fraction in human plasma at 37 degC by equilibrium dialysis; type: ADME, cell-free
[21] = Plasma clearance in Han Wistar rat at 1 mg/kg, iv; type: ADME, organism-based
[22] = Volume of distribution at steady state in Han Wistar rat at 1 mg/kg, iv; type: ADME, organism-based; conditions: in vivo, read-out: Vdss
[23] = Oral bioavailability in Han Wistar rat at 2 mg/kg; type: ADME, organism-based; conditions: in vivo
[24] = AUC in SCID mouse at 50 mg/kg, po; type: ADME, organism-based; conditions: in vivo
[25] = Aqueous solubility in pH 7.4 phosphate buffer; type: physicochemical
OCI-Ly10 [26] = assay: Antitumor activity against human OCI-LY10 cells xenografted in CB.17 SCID mouse assessed as inhibition of tumor growth at 50 mg/kg, po QD dosed 34 days after tumor cell inoculation; type: functional, organism-based
OCI-Ly10 [27] = assay: Antitumor activity against human OCI-LY10 cells xenografted in CB.17 SCID mouse assessed as induction of tumor regression at 50 mg/kg, po QD dosed 34 days after tumor cell inoculation and co-treated with 12 mg/kg, po QD ibrutinib; type: functional, organism-based
[28] = target: T3, Interleukin-1 receptor-associated kinase 4 (Homo sapiens, UniProt Q9NWZ3); assay: Inhibition of IRAK4 (unknown origin) in presence of 5 mM ATP by enzymatic assay
T3 sequence (Q9NWZ3 whole entry): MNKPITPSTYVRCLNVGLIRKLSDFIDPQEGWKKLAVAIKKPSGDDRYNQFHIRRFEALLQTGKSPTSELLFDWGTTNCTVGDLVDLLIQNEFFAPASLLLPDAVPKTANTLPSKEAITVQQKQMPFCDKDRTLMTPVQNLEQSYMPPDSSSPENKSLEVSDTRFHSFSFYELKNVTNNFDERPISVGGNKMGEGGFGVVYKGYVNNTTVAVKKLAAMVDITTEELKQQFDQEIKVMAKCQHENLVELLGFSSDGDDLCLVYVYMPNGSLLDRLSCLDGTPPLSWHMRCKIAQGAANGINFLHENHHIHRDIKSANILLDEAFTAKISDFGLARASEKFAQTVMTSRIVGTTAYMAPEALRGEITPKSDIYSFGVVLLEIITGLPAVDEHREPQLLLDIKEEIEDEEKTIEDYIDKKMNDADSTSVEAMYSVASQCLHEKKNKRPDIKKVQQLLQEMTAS

[29] = target: T3, Interleukin-1 receptor-associated kinase 4; assay: Inhibition of IRAK4 (unknown origin) by cell based assay
[30] = Efflux ratio in human Caco2 cells; type: ADME, cell-based; conditions: Caco-2

COC(=O)N1CCN([C@H]2CC[C@H](Nc3ncnc4ccc(C#N)cc34)CC2)CC1
logD [1]: 2.2 | hepatocyte CLint [2]: < 1 µL/min/1e6 cells | hepatocyte CLint [3]: < 1.6 µL/min/1e6 cells | Papp [4]: 200 nm/s | clearance [5]: 0.444 L/h/kg | bioavailability [6]: > 100% | inhibition [7]: 84% | inhibition [8]: 58% | inhibition [9]: 53% | inhibition [10]: 51% | pIC50 [11]: 7.36 | pIC50 [12]: 5.77 | pIC50 [13]: 6.44 | pIC50 [14]: < 5.00 | pIC50 [15]: 6.21 | pIC50 [16]: 5.51 | pIC50 (CDK8/Cyclin C): 7.17 | pIC50 [17]: 6.43 | fraction unbound [18]: 0.05 | fraction unbound [19]: 0.28 | fraction unbound [20]: 0.23 | clearance [21]: 0.444 L/h/kg | Vd [22]: 1.3 L/kg | bioavailability [23]: > 100% | AUC [24]: 390 µM·h | solubility [25]: 130 µM (≈ 51.3 µg/mL) | TGI (OCI-Ly10 [26]): Active | Activity (OCI-Ly10 [27]): Active

COC(=O)N1CCN([C@H]2CC[C@H](Nc3ncnc4ccc(C)cc34)CC2)CC1
pIC50 [28]: 7.42 | pIC50 [29]: 6.70 | logD [1]: 2.5 | hepatocyte CLint [2]: < 1 µL/min/1e6 cells | hepatocyte CLint [3]: 10 µL/min/1e6 cells | Papp [4]: 280 nm/s | efflux ratio [30]: 0.7

COC(=O)N1CCN([C@H]2CC[C@H](Nc3nc(Nc4cnn(C)c4)nc4ccc(C#N)cc34)CC2)CC1
pIC50 [28]: 9.00 | pIC50 [29]: 7.47 | logD [1]: 3.2 | hepatocyte CLint [2]: < 1 µL/min/1e6 cells | hepatocyte CLint [3]: 5.4 µL/min/1e6 cells | Papp [4]: 30 nm/s | efflux ratio [30]: 46 | clearance [5]: 0.66 L/h/kg | bioavailability [6]: 10%

COC(=O)N1CCN([C@H]2CC[C@H](Nc3nc(Nc4cnn(C)c4)nc4ccc(C(C)(C)C#N)nc34)CC2)CC1
pIC50 [28]: 7.16 | pIC50 [29]: 5.80 | logD [1]: 3 | hepatocyte CLint [3]: 18 µL/min/1e6 cells

COC(=O)N1CCN([C@H]2CC[C@H](Nc3nc(Nc4cnn(C)c4)nc4ccc(C#N)nc34)CC2)CC1
pIC50 [28]: 8.30 | pIC50 [29]: 7.32 | logD [1]: 2.7 | hepatocyte CLint [3]: 2.6 µL/min/1e6 cells

CC(=O)N1CCN([C@H]2CC[C@H](Nc3nc(Nc4cnn(C)c4)nc4ccc(C#N)cc34)CC2)CC1
pIC50 [28]: 9.00 | pIC50 [29]: 6.40 | logD [1]: 2.3 | hepatocyte CLint [2]: < 1 µL/min/1e6 cells | hepatocyte CLint [3]: 3.2 µL/min/1e6 cells | Papp [4]: < 2 nm/s | efflux ratio [30]: 323 | clearance [5]: 1.02 L/h/kg

N#Cc1ccc2ncnc(N[C@H]3CC[C@H](N4CCOCC4)CC3)c2c1
pIC50 [28]: 7.34 | pIC50 [29]: 6.60 | logD [1]: 1.6 | hepatocyte CLint [2]: < 1.2 µL/min/1e6 cells | hepatocyte CLint [3]: 3.4 µL/min/1e6 cells | Papp [4]: 180 nm/s | efflux ratio [30]: 1.6 | clearance [5]: 1.2 L/h/kg | bioavailability [6]: 29%
